Measurements reported in patent publication US5648382A, “Cyclohexane compounds” (Adir et Compagnie, priority 1995, dated 1997).

Columns and labels:
[1] = system: chicken embryo chorio-allantoic membrane; experiment: Inhibition of neovascularization of chicken embryo chorioallantoic membrane; assay type: in vivo; settings: avascular zone greater than 4 mm in diameter, 48 hours after disk placed on CAM on day 6
Protocol: Example B: Inhibition of Neovascularization of Chicken Embryo Chorioallantoic Membrane
This test was carried out with chicken embryos in the manner described above (Crum R., Szabo S. and Folkman J., Science, (1985), 230, 1375-1378). The fertilized eggs are incubated at 37° C. (D0). A pocket of air is created by removing 1 ml of albumin (D3), then a window is cut from the shell (D4) and the vitelline membrane is removed in order to separate the chorio-allantoic membrane (CAM).
The products to be tested are dissolved in ethanol and placed on methylcellulose disks which are dried and placed on the CAM on day 6. From 8 to 16 eggs are used per group. The zone situated round the disk is then examined 48 hours later. The eggs having an avascular zone greater than 4 mm in diameter are counted and the results are expressed as a percentage of eggs having an avascular zone.

[2] = system: tumour; experiment: Antitumour activity in mice, subcutaneous tumour implant; assay type: in vivo; settings: i.p., day 1 to day 12, tumour weight on day 13
Protocol: Example C: Antitumour Activity
The antitumour activity of the compounds of the invention was studied in accordance with the protocol described by R. I. Geran et al, Cancer Chemotherapy Reports, (1972), Part 3, pages 3 et seq.
Mice were divided at random into treated groups (11 mice per group) and a control group of 40 mice.
Tumour fragments were implanted on day 0 (subcutaneous implant). The compounds to be tested were administered for 12 days (day 1 to day 12) by the i.p. route.
The average weight of the tumour was determined on day 13 after implantation. The percentage inhibition was calculated in accordance with the following formula: [formula] As an example, the compound of Example 27 gave the following results: […]

Row | Compound | % of eggs having an avascular zone [1] | % inhibition (tumour weight) ([2]; 30 mg/kg) | % inhibition (tumour weight) ([2]; 60 mg/kg)
1 | CC1OC1(C)[C@@]1(O)C[C@H](OC(=O)NC(=O)CCl)CC[C@]12CO2 (relative stereo) [Example 6, (3S*, 4R*, 6R*)-6-Chloroacetylcarbamoyloxy-4-hydroxy-4-(2,3-dimethyloxiran-2-yl)-1-oxa-spiro[2.5]octane] | 79 ± 9% |  | 
2 | CC1OC1(C)[C@@]1(O)C[C@H](OC(=O)NC(=O)CCl)CC[C@]12CO2 (relative stereo) [Example 7, (3S*; 4R*, 6R*)-6-Chloroacetylcarbamoyloxy-4-hydroxy-4-(2,3-di-methyl-2-oxiranyl)-1-oxa-spiro[2.5]octane] | 81 ± 10% |  | 
3 | O=C(CCl)NC(=O)O[C@@H]1CC[C@]2(CO2)[C@@](O)(CCCCCc2ccccc2)[C@@H]1Br (relative stereo) [Example 10, (3S*, 4S*, 5R*, 6R*)-5-Bromo-6-chloroacetylcarbamoyloxy-4-hydroxy-4-(5-phenylpentyl)-1-oxa-spiro[2.5]octane] | 73 ± 11% |  | 
4 | O=C(CCl)NC(=O)O[C@@H]1CC[C@]2(CO2)[C@@]2(CCCCCc3ccccc3)O[C@@H]12 (relative stereo) [Example 18, (1S*,2S*,5R*,6S*)-5-Chloroacetylcarbamoyloxy-2-(2-spiro-oxiranyl)-1-(5-phenyl-pentyl)-7-oxabicyclo[4.1.0]heptane] | 69 ± 6% |  | 
5 | C[C@@]1(OC(=O)NC(=O)CCl)CC[C@@H](OC(=O)NC(=O)CCl)[C@@H]2O[C@@]21CCCCCc1ccccc1 (relative stereo) [Example 19, (1S*,2R*,5R,*6S*)-2,5-Dichloroacetylcarbamoyloxy-2-methyl-1-(5-phenylpentyl)-7-oxabicyclo[4.1.0]heptane] | 76 ± 9% |  | 
6 | CC1([C@@]23OC(=O)O[C@@H]2[C@H](OC(=O)NC(=O)CCl)CC[C@]32CO2)CO1 (relative stereo) [Example 23, (3S*,4S*,5R*,6R*)-6-Chloroacetylcarbamoyloxy-4-(2-methyl-oxiran-2-yl)-1-oxa-spiro[2.8]benzo[1.3]dioxol-2-one] | 78 ± 7% |  | 
7 | O=C(CCl)NC(=O)O[C@@H]1CC[C@]2(CO2)[C@](CCCCCc2ccccc2)(OC(=O)NC(=O)CCl)C1 (relative stereo) [Example 27, (3S*,4R*,6R*)-4,6-Dichloroacetylcarbamoyloxy-4-(5-phenylpentyl)-1-oxa-spiro[2.5]octane] |  | 56% | 82%
8 | O=C(CCl)NC(=O)O[C@H]1CC[C@]2(CO2)[C@@](CCCCCc2ccccc2)(OC(=O)NC(=O)CCl)C1 (relative stereo) [Example 28, (3S*,4S*6S*)-4,6-Dichloroacetylcarbamoyloxy-4-(5-phenylpentyl)-1-oxa-spiro[2.5]octane] | 90 ± 4% |  | 
9 | C=C(C)[C@]12O[C@H]1[C@H](OC(=O)NC(=O)CCl)CC[C@]21CO1 (relative stereo) [Example 29, (1S*,2S*,5R*,6S*)-5-Chloroacetylcarbamoyloxy-1-isopropenyl-2(2-spiro-oxiranyl)-7-oxabicyclo[4.1.0]heptane] | 66 ± 6% |  | 
10 | O=C(CCl)NC(=O)O[C@H]1CC[C@]2(CO2)[C@](O)(C2OC2CCCc2ccccc2)[C@H]1Br (single isomer, unassigned) [Example 13] | 70 ± 16% |  | 
11 | CC1([C@]23O[C@H]2[C@@H](OC(=O)NC(=O)CCl)CC[C@]32CO2)CO1 (single isomer, unassigned) [Example 17 Diastereoisomer A, (1R*,2S*,5S*,6S*)-5-Chloroacetylcarbamoyloxy-1-[(2S* and 2R*)-(2-methyloxiran-2-yl)]-2-(2-spiro-oxiranyl)-7-oxabicyclo[4.1.0]heptan] | 74 ± 7% |  | 
12 | CC1([C@]23O[C@H]2[C@H](OC(=O)NC(=O)CCl)CC[C@]32CO2)CO1 (single isomer, unassigned) [Example 30 Diastereoisomer A, (1R*,2S*,5R*,6S*)-5-Chloroacetylcarbamoyloxy-1-[(2S* and 2R*)-(2-methyloxiran-2-yl)]-2-(2-spiro-oxiranyl)-7-oxabicyclo[4.1.0]heptan] | 75 ± 7% |  | 
13 | CC1([C@]23O[C@H]2[C@H](OC(=O)NC(=O)CCl)CC[C@]32CO2)CO1 (single isomer, unassigned) [Example 30 Diastereoisomer B, (1R*,2S*,5R*,6S*)-5-Chloroacetylcarbamoyloxy-1-[(2S* and 2R*)-(2-methyloxiran-2-yl)]-2-(2-spiro-oxiranyl)-7-oxabicyclo[4.1.0]heptan] | 68 ± 5% |  | 
14 | CC(C)CCCC12OC1C(OC(=O)NC(=O)CCl)CCC21CO1 (stereo not drawn) [Example 21, 5-Chloroacetylcarbamoyloxy-2-(2-spiro-oxiranyl)-1-(4-methyl-pentyl)-7-oxabicyclo[4.1.0]heptane] | 76 ± 6% |  | 
